Literature values as cited in US20110039787A1, “COMPOSITIONS, KITS AND METHODS FOR TREATING BENIGN PROSTATE HYPERPLASIA” (priority 2009, published 2011).

Test system: BPH
Settings: cited from earlier work

Compound | IPSS change (maximum of known medicinal treatments, FIG. 2) (AUA Guideline on the Management of BPH (2006), historical comparison) | Maximum reduction in mean IPSS (preliminary study, European Urology 54 (2008) 170-180)
CCOc1ccccc1OCCN[C@H](C)Cc1ccc(OC)c(S(N)(=O)=O)c1 [Tamsulosin] | approximately −7.5 | 
cetrorelix glucoronate |  | −5.4 to −5.9
